# Measurements published in US11655254B2, “Substituted piperazines as BTK inhibitors” (HUTCHISON MEDIPHARMA LIMITED, priority 2020, dated 2023).
# Columns and labels:
# [1] = target: Phosphorylated BTK in Ramos cells (Homo sapiens (Human), UniProt Q06187); assay: Determination of phosphorylated BTK in Ramos cells (BTK phospho-Y223 HTRF); type: cell-based; conditions: Ramos cells stimulated with immunoglobulin M 10 μg/mL and hydrogen peroxide 3.3 mM, 10 minutes
# Description: Ramos cells were starved in PRMI 1640 medium with 1% FBS for 2 hours. The starved Ramos cells were diluted with Hank's balanced salt solution to 5.0×10^6 cells/ml, seeded in a 96-well plate with 20 μL/well (1.0×10^5 cells/well), and cultured in a 5% CO2, 37° C. cell incubator. […]
# The 384 well plate incubated overnight in the constant temperature incubator was taken out to detect the luminescence signal using the Envision microwell plate reader at the […]. The reading value at 665 nm/615 nm of each well multiplied by 10^4 was used as the signal value of each well.
# The average signal value of the wells supplemented with the mixed solution of human immunoglobulin M (final concentration was 10 μg/mL) and hydrogen peroxide (final concentration was 3.3 mM) without the test compound was regarded as the high value, and the average signal value of the wells without immunoglobulin M stimulation and without the test compound was regarded as the low value. According to the signal value in each well, the inhibition ratio (%) of each concentration of compounds was calculated, and the 205 model in XL-Fit 5.3 software (ID Business Solutions Limited) was used to obtain an IC50 value.
# The inhibition ratio is calculated as follows: inhibition ratio (%)=100%−{(treating well for the test compound−negative control treating well)/(control treating well for anti-human immunoglobulin M−negative control treating well)}×100%, wherein, […]
# [2] = Drug concentration in plasma of mice of the B cell activation study; type: in vivo; conditions: C57BL/6, plasma; mouse, 5 mg/kg oral, 16 h after administration
# Description: The animals of each group were administered, then were placed in CO2 for anesthesia at designated time points, blood samples were taken from […] via retro-orbital bleeding, and heparin was used for anticoagulation; 90 μL of whole blood was taken from mice of each group, and added to a 96 well culture plate, and anti-mouse IgD antibody (BIO-RAD, Cat #MCA4693) was added to each well to a final concentration of 0.01 μg/μL (respectively for each drug-treated group and anti-IgD antibody-inducted vehicle group); in addition, 90 μL of whole blood of mice in the vehicle group was taken and added to the 96-well culture plate, and PBS (phosphate buffer, GIBCO, Cat # C20012500BT) was added to each well to a final concentration of 0.01 μg/μL (namely, the vehicle control group); Each group was mixed well and incubated in a 37° C./5% CO2 incubator for 4 hours. In addition, the blood of mice in the drug-treated group was centrifuged to separate plasma for blood concentration analysis.
# [3] = test system: CIA (collagen induced arthritis) rats; assay: Rat arthritis model induced by type II collagen (CIA); type: in vivo; conditions: compared with vehicle control group
# Description: An appropriate amount of bovine type II collagen (CII, Chondrex (Redmond, Wash., USA), Cat #20021) was weighed and dissolved in 0.1 mole of acetic acid (SPGC Sinopharm Chemical Reagent Co., Ltd (Shanghai, P.R. China), Cat #: 10000218.), which was formulated into a solution with a concentration of 6 mg/mL, stirred at 4° C. overnight, and added with an equal volume of Freund's incomplete adjuvant (Sigma-Aldrich.(St. Louis, Mo., USA), Cat #: SLBW0366.), fully emulsified to prepare an emulsion with a CII concentration of 3 mg/mL.
# Female Lewis rats were purchased from Beijing Vital River Laboratory Animal Technology Co., Ltd. (certificate number 20200928Aazz0619000579, initial body weight of 110-130 grams), and 6 rats were randomly selected as a normal group; and all of the remaining rats were immunized. In the first immunization on day 0, the rats except those in the normal group were anesthetized with isoflurane (Hebei Yipin Pharmaceutical Co., Ltd., Lot: C002170601.), and then disinfected with 75% alcohol, and 0.2 mL of emulsion was injected intradermally at the base of the tail thereof. A second challenge was carried out on day 7, and 0.2 mL of emulsion was intradermally injected using the same method. Once the animals developed symptoms on day 10, the incidence conditions thereof were closely monitored.
# After grouping, the normal group was not administered, and the rats in the other groups were administered with the control vehicle, 0.25 mg/kg and 4 mg/kg of the reference GDC-0853, and each dose of compound 1 orally once a day until the end of the experiment.
# The paw volume was measured on day 10 after immunization, and the left and right hind paw volumes (V) were measured every day after the paw volume increase was detected.
# The arthrosis paw volumes of the left and right hind limbs of each animal were measured, and the average paw volume (APV) was calculated according to the following formula: Average paw volume APV=(Vleft+Vright)/2
# The average arthrosis paw volume of each animal before administration was used as the baseline (or considered 100% inhibition of inflammation). […]
# The area under the curve (AUC) of the average paw volume swelling is the area under the curve of the arthrosis score swelling calculated by the trapezoid method, and the calculation formula is: AUCAPS=1/2×(APSd1+APSd2)×(d2−d1)+1/2×(APSd2+APSd3)×(d3−d2)+ . . . +1/2×(APSdn+APSd(n-1))×(dn−dn-1). […]
# ED50 is calculated by XLfit software according to the AUC inhibition ratio of the area under the curve of the average paw volume swelling. […]
# Phosphorylated BTK in Ramos cells, sequence (Q06187 whole entry): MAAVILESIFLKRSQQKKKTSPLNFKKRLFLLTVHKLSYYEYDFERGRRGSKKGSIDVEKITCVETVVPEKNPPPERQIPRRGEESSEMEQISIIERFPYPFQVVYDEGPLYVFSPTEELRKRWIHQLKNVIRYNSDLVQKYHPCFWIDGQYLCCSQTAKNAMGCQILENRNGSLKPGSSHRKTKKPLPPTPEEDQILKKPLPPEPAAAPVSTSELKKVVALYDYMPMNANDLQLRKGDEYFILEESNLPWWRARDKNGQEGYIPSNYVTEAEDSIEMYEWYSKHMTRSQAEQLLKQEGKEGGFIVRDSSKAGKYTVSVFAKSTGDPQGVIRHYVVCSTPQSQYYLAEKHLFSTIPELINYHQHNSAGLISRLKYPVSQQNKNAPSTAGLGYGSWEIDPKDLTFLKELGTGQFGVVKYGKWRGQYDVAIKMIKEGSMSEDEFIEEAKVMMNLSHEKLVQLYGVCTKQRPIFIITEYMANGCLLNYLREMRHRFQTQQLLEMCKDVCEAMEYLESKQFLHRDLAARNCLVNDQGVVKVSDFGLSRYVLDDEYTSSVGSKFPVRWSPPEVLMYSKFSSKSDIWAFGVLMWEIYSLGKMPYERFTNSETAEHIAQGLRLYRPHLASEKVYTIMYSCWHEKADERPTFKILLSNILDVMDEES
smiles,measurement,setting,value
"C[C@H]1CN(C2COC2)C[C@H](C)N1c1ccc(Nc2cc(-c3ccnc(-n4ccn5c6c(cc5c4=O)CC(C)(C)C6)c3CO)cn(C)c2=O)nc1 [Compound 1, 2-(5-((5-((2S,6S)-2,6-dimethyl-4-(oxetan-3-yl)piperazin-1-yl)pyridin-2-yl)amino)-3′-(hydroxymethyl)-1-methyl-6-oxo-1,6-dihydro-[3,4′-bipyridin]-2′-yl)-7,7-dimethyl-7,8-dihydro-2H-cyclopenta[4,5]pyrrolo[1,2-a]pyrazin-1(6H)-one]",IC50,[1],5 nM
same,concentration at 16 h,[2],6.27 ± 1.68 ng/mL
same,effect on paw volume,[3]; 0.25 mg/kg oral QD,significantly increase the continuous improvement of paw volume swelling
same,effect on paw volume,[3]; 4 mg/kg oral QD,significantly increase the continuous improvement of paw volume swelling
